From patent US20240116856A1 (Young BioPharma, LLC, priority 2020, published 2024)
“Also recorded” adds a separate entry of the source. Read-outs that look alike come from different tables or passages of the source.

What was measured:
[1] = molecular target: T1, TRPV1 (Mus musculus, UniProt Q704Y3); test: Ca2+ imaging of primary mouse dorsal root ganglion (DRG) neurons, TRPV1 desensitization; type: cell-based; conditions: then capsaicin 0.5 μM
T1 construct: DRG was isolated from male and female mice expressing GCaMP6f in neurons; endogenous in cells; host or cells: dissociated primary DRG neurons from GCaMP6f-expressing mice
T1 sequence (Q704Y3 whole entry): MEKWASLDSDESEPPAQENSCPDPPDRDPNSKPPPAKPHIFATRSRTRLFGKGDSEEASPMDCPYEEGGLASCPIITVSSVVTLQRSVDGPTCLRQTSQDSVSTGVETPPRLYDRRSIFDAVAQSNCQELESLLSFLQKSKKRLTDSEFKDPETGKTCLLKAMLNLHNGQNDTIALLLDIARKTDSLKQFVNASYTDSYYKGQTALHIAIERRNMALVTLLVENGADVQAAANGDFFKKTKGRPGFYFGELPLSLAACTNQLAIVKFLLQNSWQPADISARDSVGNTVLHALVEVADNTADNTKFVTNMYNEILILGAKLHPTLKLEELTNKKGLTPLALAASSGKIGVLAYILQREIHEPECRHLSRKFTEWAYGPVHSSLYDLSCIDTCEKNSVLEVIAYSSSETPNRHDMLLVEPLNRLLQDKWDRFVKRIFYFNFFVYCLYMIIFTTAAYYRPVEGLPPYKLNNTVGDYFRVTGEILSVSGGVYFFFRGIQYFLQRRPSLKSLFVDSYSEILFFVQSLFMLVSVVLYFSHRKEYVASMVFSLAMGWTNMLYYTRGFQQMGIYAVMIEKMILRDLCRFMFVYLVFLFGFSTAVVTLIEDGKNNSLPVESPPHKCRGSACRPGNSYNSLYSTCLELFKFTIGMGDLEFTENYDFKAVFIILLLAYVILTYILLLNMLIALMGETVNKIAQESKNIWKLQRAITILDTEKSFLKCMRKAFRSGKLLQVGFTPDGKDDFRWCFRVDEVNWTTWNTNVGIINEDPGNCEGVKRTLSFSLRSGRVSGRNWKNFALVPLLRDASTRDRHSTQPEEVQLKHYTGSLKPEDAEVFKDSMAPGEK

[2] = intraplantar; for reduction of first phase spontaneous behavior: 5-10 g dose
[3] = SubQ; YB-16 3, 6 mg/kg; capsaicin 2 mg/kg
[4] = system: MDA-MB-231; test: Human cancer cell growth inhibition assay (ATP assay), MDA-MB-231; type: cell-based; conditions: Homo sapiens, MDA-MB-231, 96 h; 4 days; Means±SEM from three independent experiments; read-out: MDA-MB-231, IC50
[5] = system: Src protein activation in MDA-MB-231 cells; test: Cancer cell immunocytochemistry assay, Phospho-Src (Y416), MDA-MB-231; type: cell-based, human; conditions: YB-1 15 μM, capsaicin 50 μM, 1-6 h
Description: Human cancer cells (15,000 cells/well) in 96 well half area microplate (Cat #3882, Corning) were incubated overnight at 37° C., then compounds or DMSO control were added to the cell culture and incubated at 37° C. for 1-6 h. The cells were sequentially fixed with 4% formalin, permeabilized with 0.5% Triton X-100, blocked with 5% BSA in PBS, incubated with Human Phospho-Src (Y416) Antibody (Cat #MAB2685, R&D Systems) at rt for 2 h, incubated with the secondary antibody Goat Ant-Rabbit IgG H&L (Alexa Fluor 488) (Cat #ab150077, abeam) for 45 min, and incubated with DAPI (Cat #D9542, Sigma-Aldrich) for 5 min. Finally, the cells were washed and covered with PBS. The cell images were visualized on an inverted fluorescence microscope (Leica DMIL Fluorescent Inverted Microscope with Digital Camera, Leica Microsystems). Pictures were taken [FIGS. 14A-C. Green: Human Phospho-Src (Y416), the activated form of the Src protein; Blue: DAPI (stain nucleus of cell)]. The fluorescence intensity values from 5 random cells were averaged, subtracted by the background value (area between cells) and the blank value [the blank control without the Human Phospho-Src (Y416) Antibody], then plotted as percentage against the DMSO control to indicate the effects of compound treatment on the cellular Src kinase phosphorylation levels in the cancer cells (FIGS. 15A-D).

[6] = molecular target: T2, human TRPV3 (Homo sapiens, UniProt Q8NET8); test: In vitro Ca2+ flux counter-screen in human TRPV3 overexpressing cells; type: cell-based; conditions: counter-screen; read-out: TRPV3 EC50
T2 construct: expressed in transfected cells; host or cells: overexpressing cells
T2 sequence (Q8NET8 1-790): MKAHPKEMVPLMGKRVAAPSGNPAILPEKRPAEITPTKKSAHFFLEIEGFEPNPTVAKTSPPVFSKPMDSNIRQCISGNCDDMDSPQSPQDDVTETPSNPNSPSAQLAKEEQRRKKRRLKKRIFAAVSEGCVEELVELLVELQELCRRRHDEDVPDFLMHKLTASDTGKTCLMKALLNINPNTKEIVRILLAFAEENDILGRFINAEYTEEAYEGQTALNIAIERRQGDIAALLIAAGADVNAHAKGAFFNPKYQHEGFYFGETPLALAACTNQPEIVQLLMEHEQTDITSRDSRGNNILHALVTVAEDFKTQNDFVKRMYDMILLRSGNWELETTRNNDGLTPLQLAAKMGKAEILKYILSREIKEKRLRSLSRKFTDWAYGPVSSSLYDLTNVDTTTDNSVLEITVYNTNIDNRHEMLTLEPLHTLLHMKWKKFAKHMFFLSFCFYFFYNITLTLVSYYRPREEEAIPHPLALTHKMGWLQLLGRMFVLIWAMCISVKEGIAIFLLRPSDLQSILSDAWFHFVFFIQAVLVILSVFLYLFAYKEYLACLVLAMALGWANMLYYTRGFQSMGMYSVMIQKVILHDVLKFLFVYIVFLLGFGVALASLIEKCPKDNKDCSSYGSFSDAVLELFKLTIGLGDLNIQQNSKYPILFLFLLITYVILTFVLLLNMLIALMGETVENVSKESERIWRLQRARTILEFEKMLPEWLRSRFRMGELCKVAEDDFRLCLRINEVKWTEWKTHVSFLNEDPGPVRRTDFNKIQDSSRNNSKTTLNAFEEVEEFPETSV

[7] = system: MDA-MB-231 breast cancer tumors; conditions: literature; cited from earlier work
[8] = first treatment capsaicin 0.5 μM, YB-11 0.5 μM or YB-16 1.0 μM, paired t-test

Structure (SMILES): COc1cc(CNC(=O)CCCC/C=C/C(C)C)ccc1O [Capsaicin, trans-8-methyl-N-vanillyl-6-nonenamide, reference compound]
- TRPV1-sensitive neurons showing desensitization ([1]; first treatment 0.5 μM): 96%
- area under the curve of the Ca2+ signal of the second (capsaicin) application [1, 8]: statistically significant reduction; also recorded: significantly reduced
- max Ca2+ signal of the second (capsaicin) application [1, 8]: statistically significant reduction; also recorded: significantly reduced
- maximum tolerated dose (MTD) [2]: 5 g
- reduction of first phase spontaneous behavior ([2]; 2 hr prior to formalin): 44% reduction in first phase pain
- reduction of first phase spontaneous behavior ([2]; 2 hr prior to formalin, listed as capsaicin): 44%
- animals with sedation ([2]; 10 g dosing group): 20%
- effect in the second phase of the formalin test ([2]; 2 hr prior to formalin): not statistically significant
- effect on formalin spontaneous pain-like behavior ([2]; 2 hr prior to formalin): reduce spontaneous pain-like behavior in a dose-related manner
- animal death and sedation in formalin test ([2]; listed as capsaicin): One of the capsaicin treated animals died
- effect on hot-plate reaction [3]: reduced hotplate sensitivity compared to vehicle
- IC50 [4]: 387 ± 120 µM
- cellular Src kinase phosphorylation levels [5]: time-dependently reduced the cellular Src kinase phosphorylation levels
- EC50 [6]: > 10 µM
- decrease of tumor size [7]: 50%
